According to the OPERA property sets (Mansouri et al. 2018):

Settings: 21.0 °C

Row | log10 OH rate constant (cm³/molecule/s) | Compound
1 | -9.44 | CC1=CC=C(C(C)C)CC1

Same assay, conditions: 22.0 °C

Row | log10 OH rate constant (cm³/molecule/s) | Compound
2 | -11 | C=C=C

Same assay, conditions: 25.0 °C

Row | Compound | log10 OH rate constant (cm³/molecule/s)
3 | c1ccsc1 | -11
4 | FC(Cl)Cl | -13.5
5 | Nc1ccc(Cc2ccc(N)cc2)cc1 | -10.5
6 | Cc1ccccc1[N+](=O)[O-] | -12.2
7 | Clc1ccc(Cl)c2ccccc12 | -11.2
8 | COO | -11.3
9 | CN(C)C | -10.2
10 | C/C=C/C=O | -10.4
11 | N#Cc1ccccc1 | -12.5
12 | Clc1ccccc1 | -12.1
13 | ClC(Cl)Cl | -13
14 | Clc1cccc(Cl)c1 | -12.1
15 | FC(F)(Cl)Cl | < -15.4
16 | Cc1ccccc1O | -10.4
17 | CC=O | -10.8
18 | OCC(Cl)(Cl)Cl | -12.6
19 | C=CCCl | -10.8
20 | C=CBr | -11.2
21 | ClCCl | -12.8
22 | FC(F)(F)F | < -15.4

Row | Compound | log10 OH rate constant (cm³/molecule/s)
23 | O=[N+]([O-])c1cccc2ccccc12 | -11.3
24 | Cc1cc(C)cc(C)c1 | -10.2
25 | O=[N+]([O-])c1ccc2ccccc2c1 | -11.3
26 | CCc1ccccc1C | -10.9
27 | O=[N+]([O-])c1ccccc1O | -12
28 | c1ccc2c(c1)Cc1ccccc1-2 | -10.9
29 | CNN | -10.2
30 | CCC(C)=O | -11.9
31 | FCCl | -13.4
32 | OCCCl | -11.9
33 | Oc1cccc(Cl)c1Cl | -11.8
34 | Cc1ccc(C)cc1 | -10.8
35 | Cc1ccc2ccccc2c1 | -10.3
36 | CC1CO1 (stereo not drawn) | -12.3
37 | CBr | -13.4
38 | CC=Cc1ccccc1 | -10.2
39 | C1COCCO1 | -11
40 | CC(=O)OO[N+](=O)[O-] | -13
41 | FC(F)=C(Cl)Cl | -11.1

Results, then the compound that gave them:

Row | log10 OH rate constant (cm³/molecule/s) | Compound
42 | -13.5 | CC(F)F
43 | -11.5 | CCCC(C)(C)C
44 | -11.1 | CCCCCCCC
45 | -10.9 | C1CCCCCCC1
46 | -11.2 | C1OCOCO1
47 | -10.9 | CCCCC(C)O (stereo not drawn)
48 | -10.4 | CC(C)S
49 | -11 | CCCCC(C)=O
50 | -10.8 | CCOCOCC
51 | -11.3 | C1CCCC1
52 | -11.6 | CCC(C)(C)C
53 | -11.9 | CCC
54 | -10.6 | CC(C)(C)C=O
55 | -11.5 | CC(=O)OC(C)C
56 | -10.6 | CC(C)C=O
57 | -11.4 | CC(C)C(C)(C)C
58 | -11.3 | C1CC2CCC1C2
59 | -10.3 | Cc1cccc2ccccc12
60 | -11.3 | CC(C)C(=O)C(C)C

Row | log10 OH rate constant (cm³/molecule/s) | Compound
61 | -10.6 | CC#CC
62 | -10.9 | CCC(O)CC
63 | -11.1 | CCSC
64 | -10.6 | C=C=CC
65 | -11.1 | C=C
66 | -12.1 | CC(C)(C)C
67 | -9.77 | C=C1C=CC(C(C)C)CC1 (stereo not drawn)
68 | -10.8 | CC(=O)C=O
69 | -12 | Ic1ccccc1
70 | -11.9 | c1ccccc1
71 | -10.6 | CC(C)(N)CO
72 | -11.5 | CCCOC(C)=O
73 | -12.3 | O=CO
74 | -10.9 | CCCCCCCC(C)=O
75 | -12.2 | Fc1ccccc1
76 | -11.2 | CC(C)C(C)C
77 | -10.6 | CC(C)CC=O
78 | -10.5 | Cc1cccc(C)c1C
79 | -10.7 | CCCCCCCCCCCCCC

Row | log10 OH rate constant (cm³/molecule/s) | Compound
80 | -10.9 | C1CCCCCC1
81 | -11.9 | CCC(=O)O
82 | -10.6 | CC(C)COCC(C)C
83 | -11.6 | CC(=O)c1ccccc1
84 | -11.2 | CCCC(=O)CC
85 | -10.8 | C=C=O
86 | -12.3 | FC(F)(F)c1ccccc1
87 | -10.3 | CCC(C)CS (stereo not drawn)
88 | -10.3 | C=CC=CC=C
89 | -11.5 | CC(C)C1CC1
90 | -14 | FCF
91 | -9.88 | C=CC=C(C)C
92 | -9.92 | C=C(C)CCC(=C)C
93 | -10.9 | CCCC(C)O (stereo not drawn)
94 | -12.1 | CC(=O)O
95 | -10.4 | C=CCCCCC
96 | -11 | CC1CCCCC1
97 | -10.2 | CS(C)=O

Same assay, conditions: 27.0 °C

Row | Compound | log10 OH rate constant (cm³/molecule/s)
98 | CCN | -10.6
